Measurements: PubChem BioAssay (NCI)
“And” between values parts separate entries of the source, which are not always exact repeats. Equal entries are not always repeated.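 Five compound concentrations were applied to cells in 96-well plates for 48 hours; endpoints were derived by simple linear interpolation of the resulting dose-response curve. At the GI50, growth is halved. TGI is the concentration that stops growth completely.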

Tests used:
Test in all cases: NCI-60 cell line screen, 48 h
A498 renal = test system: A498 renal
ACHN renal = test system: ACHN renal
BT-549 breast = test system: BT-549 breast
EKVX NSCLC = test system: EKVX NSCLC
HOP-92 NSCLC = test system: HOP-92 NSCLC
MCF7 breast = test system: MCF7 breast
NCI-H522 lung = test system: NCI-H522 lung
RPMI-8226 leukemia = test system: RPMI-8226 leukemia
SNB-19 CNS = test system: SNB-19 CNS
SR leukemia = test system: SR leukemia
UO-31 renal = test system: UO-31 renal

Structure (SMILES)	TGI (A498 renal) [µM]	TGI (ACHN renal) [µM]	TGI (BT-549 breast) [µM]	TGI (EKVX NSCLC) [µM]	TGI (HOP-92 NSCLC)	TGI (MCF7 breast) [µM]	TGI (NCI-H522 lung)	TGI (RPMI-8226 leukemia) [µM]	TGI (SNB-19 CNS)	TGI (SR leukemia) [µM]	TGI (UO-31 renal) [µM]	GI50 (BT-549 breast)	GI50 (NCI-H522 lung)	GI50 (RPMI-8226 leukemia)	GI50 (A498 renal) [µM]	GI50 (UO-31 renal) [µM]
CCOC(=O)C1=C(O)C2C3CC4C2C(O)=C(C(=O)OCC)C2C1C3C42 (stereo not drawn)	> 100	> 100	> 100	> 100	> 100 µM	> 100	> 100 µM	> 100	> 100 µM	> 100	> 100	–	–	–	–	–
O=C(O)C(O)C(O)C(=O)O (stereo not drawn)	> 100	> 100	> 100	> 100	> 100 µM	> 100	> 100 µM	> 100	> 100 µM	> 100	> 100	–	–	–	–	–
O=C(O)CCS/C(=C\C(SCCC(=O)O)c1ccc(Cl)cc1)c1ccc(Cl)cc1 (stereo not drawn)	39	> 100	87.5	> 100	> 100 µM	60.9	> 100 µM	95.6	> 100 µM	78.5	> 100	–	–	–	–	–
O=C1C(Br)=C(c2ccccc2)O/C1=C/C(=O)c1ccc(Br)cc1	> 100	> 100	25.5	> 100	> 100 µM	> 100	39.1 µM	62.7	> 100 µM	> 100	> 100	–	–	–	–	–
Cc1ccc(/C=N/n2c(-c3ccc(C)cc3)n[nH]c2=O)cc1	95.1	> 100	> 100	> 100	> 100 µM	> 100	> 100 µM	> 100	> 100 µM	61.3	> 100	–	–	–	–	–
C=CCC1CC(n2cc(C)c(=O)[nH]c2=O)OC1CO[Si](C)(C)C(C)(C)C (stereo not drawn)	34.5	29.8	29.6	19.8	31 µM	29.1	23.1 µM	47.5	30.2 µM	11.5	24.9	–	–	–	–	–
CC(C)(C)OC(=O)NC1CC2(C=C(Br)C(=O)C(Br)=C2)OC1=O (stereo not drawn)	47.4	10.8	30.3	27.5	30.1 µM	31.6	3.92 µM	4.21	38.6 µM	4.18	13.8	–	–	–	–	–
Cc1ccc(NC=O)c(-c2c(N)[nH]c(=S)[nH]c2=O)c1	> 100	> 100	> 100	> 100	> 100 µM	> 100	> 100 µM	> 100	> 100 µM	> 100	> 100	–	–	–	–	–
NC(=O)N/N=C(/CC1C(=O)Oc2ccccc21)c1ccccc1O (stereo not drawn)	> 100	> 100	> 100	> 100	> 100 µM	> 100	> 100 µM	34.9	> 100 µM	40.8	> 100	–	–	–	–	–
Cc1nc(C)c(N2CCN(S(=O)(=O)N(Cc3ccccc3)Cc3ccccc3)CC2)c(=O)[nH]1	> 75.7	> 73	> 100	> 100	> 78.1 µM	> 100	65.1 µM	> 100	27.6 µM	> 100	> 100	–	–	–	–	–
CC(=N\N)/C(C)=N/N=C(C)/C(C)=N/N	> 100	> 100	> 100	> 100	> 100 µM	> 100	> 100 µM	> 100	> 100 µM	> 100	> 100	–	–	–	–	–
COc1ccc(C2OC(=O)c3ccc4ccccc4c32)c(C)c1 (stereo not drawn)	66.2	> 100	> 100	> 87.8	> 89.8 µM	29.9	20.9 µM	> 65.4	> 100 µM	> 89.7	> 83.8	–	–	–	–	–
Cc1ccccc1OC(C)C(=O)NN1C(=O)CSC1c1ccc(Cl)cc1 (stereo not drawn)	72.3	> 68.9	98.9	> 100	> 100 µM	> 100	> 29.4 µM	> 61	> 100 µM	> 46.3	> 100	–	–	–	–	–
CN(C(=O)Cc1ccccc1)n1cnn(CC(=O)OC(C)(C)C)c1=S	> 10	> 10	> 10	> 10	> 10 µM	> 10	> 10 µM	> 10	> 10 µM	> 10	> 10	–	–	–	–	–
C=C(C(=O)O)[C@@H]1C[C@@H]2O[C@H]1[C@@H](O)[C@@H](C)CCCC(C)=CCC[C@@]2(C)O	> 100	> 100	> 100	> 100	> 100 µM	> 100	> 100 µM	> 100	> 100 µM	> 95	> 100	33.5 µM and > 100 µM	29.3 µM and 67.6 µM	25 µM and 55.9 µM	–	–
CN(Cc1cnc2nc(N)nc(N)c2n1)c1ccc(C(=O)N[C@@H](CCC(=O)O)C(=O)O)cc1	116	> 233	> 250	> 250	229 µM and > 250 µM	> 250	155 µM and > 250 µM	> 250	211 µM and > 250 µM	194	148	–	–	–	1.05	0.0454
Nc1nc(Cl)c(N)c(NCC2(CO)CC2)n1	> 100	> 100	> 100	> 100	> 100 µM	> 100	> 100 µM	> 100	> 100 µM	> 100	> 100	–	–	–	–	–
O=C(NCCN1CCOCC1)c1cn2c(ccc3sc4ccccc4c(=O)c32)n1	> 100	> 100	> 100	> 100	> 100 µM	> 100	> 100 µM	41.2	> 100 µM	> 100	> 100	–	–	–	–	–
